Source: US11155576B2, “Synthetic peptides, enzymatic formation of pericellular hydrogels/nanofibrils, and methods of use” (BRANDEIS UNIVERSITY, priority 2014, dated 2021)

Key:
[1] = test system: HeLa cells; test: Pericellular hydrogelation on HeLa cells (optical images); assay type: cell-based, human
Description: (§1) An 11.2 mM (8.09 mg/mL) stock solution of D-2a was prepared in ddH2O. The pH was adjusted to 7.4 using 1N NaOH. 2×10^5 cells in exponential growth phase were seeded in 35 mm Petri dish with 1 mL complete culture medium. Following overnight incubation, the medium was replaced with 1 mL of medium containing D-2a (diluted from the stock solution immediately prior to use). Petri dishes were incubated at 37° C. for two hours. Next, dishes were removed from the incubator and titled on a bench to visualize the pericellular hydrogel. Prior to co-incubation with phosphatase inhibitors, cells were washed three times with medium containing Pierce phosphatase inhibitor cocktail (Thermo) (contains sodium floride, sodium orthovanadate, sodium pyrophosphate, and beta-glycerophosphate). Next, 1 mL of medium containing both the inhibitor cocktail and D-2a was applied to the cells.

[2] = test system: Ect1/E6E7 cells; test: Pericellular hydrogelation on Ect1/E6E7 cells; assay type: cell-based, human; conditions: 560 μM, prolonged incubation time of 48 hours
Description: as §1
Ect1/E6E7 cells (immortalized normal human cervical epithelial cells, which have same tissue and organ origins as HeLa cells) were treated with the same procedure as described for HeLa cells above. […] The difference of hydrogel/nanonets formation by D-2a conversion to D-2b on HeLa cells and Ect1/E6E7 cells agrees with the notion that HeLa cells have higher levels of phosphatase activity than Ect1/E6E7 cells (FIG. 9).

[3] = test system: MES-SA/dx5 cells; test: Pericellular hydrogel/nanonets on MES-SA/dx5 cells (Congo red/DAPI); assay type: cell-based, human; conditions: 280 μM, 12 hours
Description: FIG. 11 illustrates overlaid and 3D stacked z-scan images of Congo red and DAPI stained MES-SA and MES-SA/Dx5 cells treated with either 280 μM D-2a (upper panel) or medium alone (control, lower panel) for 12 hours. Scale bar=[…]. White dots outline the cells.
Cells in exponential growth phase were seeded in a glass bottomed culture chamber at 2×10^4 cells/well. Cells were allowed to attach for 24 hours at 37° C., 5% CO2. The culture medium was removed, and replaced with culture medium containing D-2a at 280 μM. Following 12 hours of incubation, cells were washed 3 times with PBS prior to being stained with 0.1 mg/mL Congo red and 0.6 μM DAPI in PBS buffer (30 minutes at 37° C. in the dark). Next, cells were rinsed three times with PBS, and then kept in PBS for imaging.

[4] = test system: MES-SA/Dx5 cells; test: MES-SA/Dx5 tumor model in nude mice; assay type: in vivo; conditions: subcutaneous and peritumoral, 800 μg dose (~32 mg/kg), 6 times every 3 days
Description: Nine nude mice were used for experiments to define the tumor growth curve. 1×10^7 MES-SA/Dx5 cells were implanted into the mice via […] using a 25 G needle. Three of the tumor-bearing mice were used to define the tumor growth curve with control treatment, and six mice were given D-2a. The mice were injected subcutaneously and peritumorally (6 times, every 3 days starting at Day 1) with either 100 μL of D-2a at 8 μg/μL (800 μg dose or ˜32 mg/kg) in PBS buffer (experimental) or 100 μL of PBS buffer (control). Tumor volume measurements were made every three days, also starting on Day 1. Volume of tumors was measured by caliper.

Compound: O=C(Cc1ccc2ccccc2c1)N[C@H](Cc1ccccc1)C(=O)N[C@H](Cc1ccccc1)C(=O)N[C@H](Cc1ccc(OP(=O)(O)O)cc1)C(=O)O [D-2a, Nap-D-Phe-D-Phe-D-Tyr(PO3H2)]
- Pericellular hydrogel formation on HeLa cells ([1]; 140 μM, 2 hours at 37° C.): Little hydrogelation
- Pericellular hydrogel formation on HeLa cells ([1]; 280 μM, 2 hours at 37° C.): formation of a hydrogel-like soft material (hydrogel) on the cell surface
- Pericellular hydrogel formation on HeLa cells ([1]; 560 μM D-2a in the presence of ALP (0.1 U/mL), 2 hours): hardly any pericellular hydrogelation
- Pericellular hydrogel formation on HeLa cells ([1]; 560 μM D-2a with phosphatase inhibitors (Pierce), 2 hours): prevent formation of the pericellular hydrogel
- Pericellular hydrogel formation on HeLa cells ([1]; 560 μM, 2 hours at 37° C.): formation of a hydrogel-like soft material (hydrogel) on the cell surface
- Hydrogel formation on Ect1/E6E7 cells [2]: hydrogels hardly form
- Pericellular hydrogel/nanonets formation [3]: forms pericellular hydrogel/nanonets
- Day by which statistically significant differences between experimental and control groups were observed [4]: ≤ 13 days
- Relative tumor volume / tumor growth [4]: inhibited tumor growth
